In article PMC7026418, “The kinase polypharmacology landscape of clinical PARP inhibitors” (Scientific Reports, 2020):
Where two headings read alike, the source gives them in different places. Blank lines part the entries; values can stand above or below the compound they belong to.

Columns and labels:
Assay in all cases: biochemical
Design in all cases: DiscoveRx KINOMEscan active site-directed competition binding; percent of control kinase bound to immobilised ligand
ADCK4 = target: T1, ADCK4 (Homo sapiens, UniProt Q96D53)
T1 construct: gene COQ8B
T1 sequence (Q96D53 1-544): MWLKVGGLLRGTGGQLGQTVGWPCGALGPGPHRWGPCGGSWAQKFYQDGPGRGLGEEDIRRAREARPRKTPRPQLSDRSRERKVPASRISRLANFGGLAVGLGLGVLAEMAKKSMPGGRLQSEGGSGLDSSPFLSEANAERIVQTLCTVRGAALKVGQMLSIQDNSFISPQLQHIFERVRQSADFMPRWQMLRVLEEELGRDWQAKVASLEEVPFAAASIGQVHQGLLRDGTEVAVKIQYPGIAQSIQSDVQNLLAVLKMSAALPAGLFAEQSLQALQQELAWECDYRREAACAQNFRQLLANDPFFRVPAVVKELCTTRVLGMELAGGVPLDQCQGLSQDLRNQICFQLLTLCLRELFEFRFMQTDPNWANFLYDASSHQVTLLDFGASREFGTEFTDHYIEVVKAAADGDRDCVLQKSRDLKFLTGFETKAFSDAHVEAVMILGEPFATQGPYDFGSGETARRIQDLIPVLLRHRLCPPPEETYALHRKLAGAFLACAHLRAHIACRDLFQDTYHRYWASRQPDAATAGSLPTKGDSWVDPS

ALK = ALK (Homo sapiens, UniProt Q9UM73)
CAMK2B = CAMK2B (Homo sapiens, UniProt Q13554)
KIT-autoinhibited = KIT-autoinhibited (Homo sapiens, UniProt P10721)
MLCK = target: T2, MLCK (Homo sapiens, UniProt Q32MK0)
T2 construct: gene MYLK3
T2 sequence (Q32MK0 1-819): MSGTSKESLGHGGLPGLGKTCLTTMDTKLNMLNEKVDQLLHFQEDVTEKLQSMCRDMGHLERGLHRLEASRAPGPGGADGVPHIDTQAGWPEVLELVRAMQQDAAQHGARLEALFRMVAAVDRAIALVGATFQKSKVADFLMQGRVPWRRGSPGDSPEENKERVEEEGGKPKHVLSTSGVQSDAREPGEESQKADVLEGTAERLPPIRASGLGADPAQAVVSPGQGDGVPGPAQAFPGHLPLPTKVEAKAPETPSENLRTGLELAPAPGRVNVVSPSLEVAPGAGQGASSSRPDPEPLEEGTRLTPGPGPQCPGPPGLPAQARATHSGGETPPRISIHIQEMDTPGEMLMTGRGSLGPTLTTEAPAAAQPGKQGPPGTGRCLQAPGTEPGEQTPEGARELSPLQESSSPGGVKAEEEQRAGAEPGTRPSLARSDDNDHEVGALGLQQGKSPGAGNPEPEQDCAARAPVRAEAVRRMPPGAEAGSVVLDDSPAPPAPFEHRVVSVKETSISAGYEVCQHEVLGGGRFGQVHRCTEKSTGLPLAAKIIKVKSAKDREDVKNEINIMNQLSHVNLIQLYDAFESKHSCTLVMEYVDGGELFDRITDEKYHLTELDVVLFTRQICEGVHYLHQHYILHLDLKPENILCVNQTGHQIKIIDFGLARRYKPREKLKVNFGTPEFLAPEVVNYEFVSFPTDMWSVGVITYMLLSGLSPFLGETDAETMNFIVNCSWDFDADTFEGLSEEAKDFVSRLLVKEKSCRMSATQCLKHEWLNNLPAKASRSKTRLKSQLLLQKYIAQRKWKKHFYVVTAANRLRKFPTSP

RIPK5 = target: T3, RIPK5 (Homo sapiens, UniProt Q6XUX3)
T3 construct: gene DSTYK
T3 sequence (Q6XUX3 1-929): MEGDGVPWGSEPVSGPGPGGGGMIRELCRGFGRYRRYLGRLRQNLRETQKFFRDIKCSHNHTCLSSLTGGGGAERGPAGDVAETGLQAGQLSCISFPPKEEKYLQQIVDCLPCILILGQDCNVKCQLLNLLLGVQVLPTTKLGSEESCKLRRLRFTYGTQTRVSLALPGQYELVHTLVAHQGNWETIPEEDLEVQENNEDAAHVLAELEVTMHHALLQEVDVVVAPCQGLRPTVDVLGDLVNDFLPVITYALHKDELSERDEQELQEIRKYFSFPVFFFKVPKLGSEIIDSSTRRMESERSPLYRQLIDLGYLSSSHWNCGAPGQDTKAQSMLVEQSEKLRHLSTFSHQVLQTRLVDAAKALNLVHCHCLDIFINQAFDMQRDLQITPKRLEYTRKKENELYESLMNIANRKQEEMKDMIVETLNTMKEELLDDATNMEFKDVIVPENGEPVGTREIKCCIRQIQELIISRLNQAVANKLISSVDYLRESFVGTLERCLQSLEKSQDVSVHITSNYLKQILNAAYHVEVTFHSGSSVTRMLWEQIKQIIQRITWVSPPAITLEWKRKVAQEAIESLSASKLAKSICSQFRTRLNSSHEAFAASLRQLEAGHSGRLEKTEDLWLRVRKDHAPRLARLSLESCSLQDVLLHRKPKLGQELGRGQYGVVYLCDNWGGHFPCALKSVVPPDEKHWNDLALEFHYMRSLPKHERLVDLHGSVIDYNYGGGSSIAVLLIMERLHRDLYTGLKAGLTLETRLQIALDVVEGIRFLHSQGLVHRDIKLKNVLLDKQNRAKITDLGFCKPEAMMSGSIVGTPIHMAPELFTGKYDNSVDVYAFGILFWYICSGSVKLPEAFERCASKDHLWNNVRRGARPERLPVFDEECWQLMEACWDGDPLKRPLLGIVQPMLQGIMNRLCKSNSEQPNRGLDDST

[1] = read-out: Niraparib (MK-4827) / %Ctrl @ 10000nM
[2] = read-out: Olaparib / %Ctrl @ 10000nM
[3] = read-out: Rucaparib / %Ctrl @ 10000nM, binding competition, % of control
[4] = read-out: Talazoparib (BMN 673) / %Ctrl @ 10000nM

Chain of KIT-autoinhibited (P10721 whole entry): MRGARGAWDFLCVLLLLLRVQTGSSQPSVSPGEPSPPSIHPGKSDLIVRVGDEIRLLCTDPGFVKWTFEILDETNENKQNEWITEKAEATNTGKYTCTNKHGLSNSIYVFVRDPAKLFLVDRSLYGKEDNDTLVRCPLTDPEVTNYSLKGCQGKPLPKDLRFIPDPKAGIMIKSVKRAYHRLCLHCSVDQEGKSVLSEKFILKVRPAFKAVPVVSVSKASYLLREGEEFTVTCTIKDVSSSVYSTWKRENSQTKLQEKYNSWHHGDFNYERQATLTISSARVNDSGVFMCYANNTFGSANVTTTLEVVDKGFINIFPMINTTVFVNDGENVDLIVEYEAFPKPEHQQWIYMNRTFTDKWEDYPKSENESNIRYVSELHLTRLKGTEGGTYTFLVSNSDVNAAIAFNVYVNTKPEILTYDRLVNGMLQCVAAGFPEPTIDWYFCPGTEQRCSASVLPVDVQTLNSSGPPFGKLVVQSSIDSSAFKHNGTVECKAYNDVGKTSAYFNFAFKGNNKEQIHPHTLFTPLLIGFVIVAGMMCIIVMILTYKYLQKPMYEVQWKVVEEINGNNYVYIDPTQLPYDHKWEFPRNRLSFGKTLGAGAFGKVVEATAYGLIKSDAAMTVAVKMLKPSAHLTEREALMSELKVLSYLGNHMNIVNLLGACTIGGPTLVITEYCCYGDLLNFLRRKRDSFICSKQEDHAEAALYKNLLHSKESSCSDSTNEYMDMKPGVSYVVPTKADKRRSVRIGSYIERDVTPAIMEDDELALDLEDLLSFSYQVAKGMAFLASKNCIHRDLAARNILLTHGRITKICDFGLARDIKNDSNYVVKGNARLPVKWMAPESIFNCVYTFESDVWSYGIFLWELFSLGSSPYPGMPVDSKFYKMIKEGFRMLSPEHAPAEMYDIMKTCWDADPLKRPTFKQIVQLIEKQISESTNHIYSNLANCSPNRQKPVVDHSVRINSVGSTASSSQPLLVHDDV
Chain of CAMK2B (Q13554 whole entry): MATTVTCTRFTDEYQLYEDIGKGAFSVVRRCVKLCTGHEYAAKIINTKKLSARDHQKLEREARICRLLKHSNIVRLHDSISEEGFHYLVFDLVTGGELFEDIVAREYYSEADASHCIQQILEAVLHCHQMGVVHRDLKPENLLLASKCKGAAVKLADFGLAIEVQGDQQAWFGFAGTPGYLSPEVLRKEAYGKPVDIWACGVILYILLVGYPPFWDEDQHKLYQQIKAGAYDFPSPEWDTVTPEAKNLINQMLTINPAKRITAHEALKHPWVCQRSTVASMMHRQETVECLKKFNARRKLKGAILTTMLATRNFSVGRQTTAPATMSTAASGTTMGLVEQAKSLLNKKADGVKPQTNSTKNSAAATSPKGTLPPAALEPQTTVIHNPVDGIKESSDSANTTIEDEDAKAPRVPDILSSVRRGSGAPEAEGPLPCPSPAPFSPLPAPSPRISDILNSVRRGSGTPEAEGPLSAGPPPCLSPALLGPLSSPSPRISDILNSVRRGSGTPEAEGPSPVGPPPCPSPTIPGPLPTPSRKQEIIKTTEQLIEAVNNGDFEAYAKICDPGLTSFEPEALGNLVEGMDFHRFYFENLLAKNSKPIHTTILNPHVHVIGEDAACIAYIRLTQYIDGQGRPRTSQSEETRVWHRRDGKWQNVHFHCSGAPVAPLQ
Chain of ALK (Q9UM73 whole entry): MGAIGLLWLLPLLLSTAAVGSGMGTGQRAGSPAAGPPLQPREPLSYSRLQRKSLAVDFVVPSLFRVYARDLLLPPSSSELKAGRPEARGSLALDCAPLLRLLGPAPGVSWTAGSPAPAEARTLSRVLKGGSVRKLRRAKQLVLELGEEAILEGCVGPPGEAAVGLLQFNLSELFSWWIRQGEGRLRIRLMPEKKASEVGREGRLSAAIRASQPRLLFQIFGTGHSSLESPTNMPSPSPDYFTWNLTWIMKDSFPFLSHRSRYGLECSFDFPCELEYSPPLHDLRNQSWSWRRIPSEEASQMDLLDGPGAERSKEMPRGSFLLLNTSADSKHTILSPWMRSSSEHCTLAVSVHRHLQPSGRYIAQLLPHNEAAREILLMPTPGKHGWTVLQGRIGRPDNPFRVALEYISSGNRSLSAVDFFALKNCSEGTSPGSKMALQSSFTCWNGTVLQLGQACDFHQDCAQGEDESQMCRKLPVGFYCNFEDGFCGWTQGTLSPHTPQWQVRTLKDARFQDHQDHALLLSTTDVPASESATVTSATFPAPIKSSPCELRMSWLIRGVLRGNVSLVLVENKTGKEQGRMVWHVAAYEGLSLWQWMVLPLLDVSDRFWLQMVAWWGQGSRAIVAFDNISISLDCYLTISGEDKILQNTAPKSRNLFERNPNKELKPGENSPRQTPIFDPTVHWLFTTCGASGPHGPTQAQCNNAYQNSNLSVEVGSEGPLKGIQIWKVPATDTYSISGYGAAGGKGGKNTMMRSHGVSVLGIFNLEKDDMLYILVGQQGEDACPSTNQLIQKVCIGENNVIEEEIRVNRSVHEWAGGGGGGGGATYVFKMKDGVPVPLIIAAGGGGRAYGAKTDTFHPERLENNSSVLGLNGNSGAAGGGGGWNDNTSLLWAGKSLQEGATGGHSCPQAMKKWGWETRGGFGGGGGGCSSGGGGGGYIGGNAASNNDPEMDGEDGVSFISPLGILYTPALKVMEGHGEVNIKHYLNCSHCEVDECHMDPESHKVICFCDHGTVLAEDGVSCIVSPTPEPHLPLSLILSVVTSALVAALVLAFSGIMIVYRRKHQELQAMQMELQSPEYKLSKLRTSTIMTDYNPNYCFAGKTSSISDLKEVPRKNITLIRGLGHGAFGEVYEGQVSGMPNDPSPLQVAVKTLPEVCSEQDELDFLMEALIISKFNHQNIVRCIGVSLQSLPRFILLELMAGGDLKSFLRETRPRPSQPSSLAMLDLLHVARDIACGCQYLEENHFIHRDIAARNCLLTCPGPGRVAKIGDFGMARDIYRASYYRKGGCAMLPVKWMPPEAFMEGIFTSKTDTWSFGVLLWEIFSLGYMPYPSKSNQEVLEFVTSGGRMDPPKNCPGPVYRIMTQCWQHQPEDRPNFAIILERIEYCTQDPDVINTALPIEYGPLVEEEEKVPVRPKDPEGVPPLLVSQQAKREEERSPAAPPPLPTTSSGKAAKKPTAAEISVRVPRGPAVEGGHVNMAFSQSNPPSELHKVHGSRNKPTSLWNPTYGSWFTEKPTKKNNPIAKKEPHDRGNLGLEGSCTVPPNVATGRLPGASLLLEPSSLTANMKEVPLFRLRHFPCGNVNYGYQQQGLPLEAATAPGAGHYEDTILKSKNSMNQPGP

SMILES: NC(=O)c1cccc2cn(-c3ccc([C@@H]4CCCNC4)cc3)nc12 [Niraparib]
- percent of control binding at 10 µM (ADCK4; [1]): 100%
- percent of control binding at 10 µM (ALK; [1]): 98%
- percent of control binding at 10 µM (CAMK2B; [1]): 90%
- percent of control binding at 10 µM (KIT-autoinhibited; [1]): 85%
- percent of control binding at 10 µM (MLCK; [1]): 92%
- percent of control binding at 10 µM (RIPK5; [1]): 89%

- percent of control binding at 10 µM (ADCK4; [2]): 97%
- percent of control binding at 10 µM (ALK; [2]): 86%
- percent of control binding at 10 µM (CAMK2B; [2]): 96%
- percent of control binding at 10 µM (KIT-autoinhibited; [2]): 93%
- percent of control binding at 10 µM (MLCK; [2]): 95%
- percent of control binding at 10 µM (RIPK5; [2]): 100%
SMILES: O=C(c1cc(Cc2n[nH]c(=O)c3ccccc23)ccc1F)N1CCN(C(=O)C2CC2)CC1 [Olaparib]

- percent of control binding at 10 µM (ADCK4; [3]): 82%
- percent of control binding at 10 µM (ALK; [3]): 45%
- percent of control binding at 10 µM (CAMK2B; [3]): 86%
- percent of control binding at 10 µM (KIT-autoinhibited; [3]): 68%
- percent of control binding at 10 µM (MLCK; [3]): 53%
- percent of control binding at 10 µM (RIPK5; [3]): 96%
SMILES: CNCc1ccc(-c2[nH]c3cc(F)cc4c3c2CCNC4=O)cc1 [Rucaparib]

- percent of control binding at 10 µM (ADCK4; [4]): 100%
- percent of control binding at 10 µM (ALK; [4]): 100%
- percent of control binding at 10 µM (CAMK2B; [4]): 92%
- percent of control binding at 10 µM (KIT-autoinhibited; [4]): 100%
- percent of control binding at 10 µM (MLCK; [4]): 98%
- percent of control binding at 10 µM (RIPK5; [4]): 100%
SMILES: Cn1ncnc1[C@H]1c2n[nH]c(=O)c3cc(F)cc(c23)N[C@@H]1c1ccc(F)cc1 [Talazoparib]
